Experimental data as given in ChEMBL document CHEMBL1129165, “6-Deoxy-6-hydroxymethyl scyllo-inositol 1,2,4-trisphosphate: A potent agonist at the inositol 1,4,5-trisphosphate receptor” (Bioorg Med Chem Lett, 1996).

Species on record: Oryctolagus cuniculus
Assay: Compound was tested for its ability to release [Ca2+] from permeabilised rabbit platelets.
Assay type: functional, organism-based

Row | SMILES | EC50 (Oryctolagus cuniculus) [nM] | EC50 [nM]
1 | O=P(O)(O)OC1[C@@H](O)C(CO)C(OP(=O)(O)O)[C@H](OP(=O)(O)O)[C@@H]1O (stereo partly drawn) | 440 | –
2 | O=P(O)(O)O[C@@H]1[C@@H](O)[C@@H](O)[C@@H](OP(=O)(O)O)C(O)[C@H]1OP(=O)(O)O (single isomer, unassigned) [INS(1,4,5)P3] | – | 400
3 | O=P(O)(O)O[C@H]1C(O)[C@@H](OP(=O)(O)O)[C@H](OP(=O)(O)O)[C@@H](O)C1O (single isomer, unassigned) [INS(1,4,5)P3] | – | 1670
